Data: PubChem BioAssay (NCI)
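Five concentrations, 48 hours, 96-well plates. TGI denotes the concentration required for complete inhibition of growth.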

Key:
Test in all cases: DTP human tumour cell line panel, 48 h
ACHN renal = tested on: ACHN renal
CAKI-1 renal = tested on: CAKI-1 renal
HCT-116 colon = tested on: HCT-116 colon
HL-60(TB) leukemia = tested on: HL-60(TB) leukemia
HOP-62 NSCLC = tested on: HOP-62 NSCLC
MCF7 breast = tested on: MCF7 breast
MDA-MB-231 breast = tested on: MDA-MB-231 breast
MDA-MB-435 = tested on: MDA-MB-435
MOLT-4 leukemia = tested on: MOLT-4 leukemia
NCI-H23 lung = tested on: NCI-H23 lung
NCI-H522 lung = tested on: NCI-H522 lung
NCI/ADR-RES ovarian = tested on: NCI/ADR-RES ovarian
OVCAR-4 ovarian = tested on: OVCAR-4 ovarian
RPMI-8226 leukemia = tested on: RPMI-8226 leukemia
RXF 393 renal = tested on: RXF 393 renal
SN12C renal = tested on: SN12C renal
U251 CNS = tested on: U251 CNS
UACC-62 melanoma = tested on: UACC-62 melanoma
HS 578T breast = tested on: HS 578T breast
T-47D breast = tested on: T-47D breast

Row | Compound | TGI (ACHN renal) | TGI (CAKI-1 renal) | TGI (HCT-116 colon) | TGI (HL-60(TB) leukemia) | TGI (HOP-62 NSCLC) | TGI (MCF7 breast) | TGI (MDA-MB-231 breast) | TGI (MDA-MB-435) | TGI (MOLT-4 leukemia) | TGI (NCI-H23 lung) | TGI (NCI-H522 lung) | TGI (NCI/ADR-RES ovarian) | TGI (OVCAR-4 ovarian) | TGI (RPMI-8226 leukemia) | TGI (RXF 393 renal) | TGI (SN12C renal) | TGI (U251 CNS) | TGI (UACC-62 melanoma) | TGI (HS 578T breast) | TGI (T-47D breast)
1 | NNC(=Nc1ccccc1)SCc1ccccc1 | > 100 µM | > 100 µM | > 100 µM | > 100 µM | > 100 µM | > 100 µM | > 100 µM | > 100 µM | > 100 µM | > 100 µM | > 100 µM | > 100 µM | > 100 µM | > 100 µM | > 100 µM | > 100 µM | > 100 µM | > 100 µM |  | 
2 | Nc1ccccc1/C=C\c1ccccc1 | > 100 µM |  | > 100 µM | > 100 µM | > 100 µM | > 100 µM |  | > 100 µM | > 100 µM | > 100 µM |  | > 100 µM |  | > 100 µM | > 100 µM | > 100 µM | > 100 µM | > 100 µM | > 100 µM | > 100 µM
3 | COC(=O)c1c(C)ccc2c(O)c3c(cc12)C(=O)c1c2c(cc(O)c1C3=O)C1(C)OC(C)(O2)C(O)C(N(C)C)C1O (centres undefined) | 4.67 µM | 6.32 µM | 1.84 µM | 15.4 µM | 13.4 µM | 8.04 µM | 3.21 µM | 2.97 µM | 3.2 µM | 3.03 µM | 2.33 µM | > 100 µM | 8.81 µM |  |  | 12.1 µM | 1.6 µM | 8.64 µM |  | 
4 | CN(C)NC1=NS(=O)(=O)c2cc3c(cc2S1)N(N(C)C)C(=O)c1cc2c(cc1N(N(C)C)C3=O)SC(NN(C)C)=NS2(=O)=O | > 10 µM | > 10 µM | > 10 µM | > 10 µM | > 10 µM | > 10 µM |  |  | > 10 µM | > 10 µM | > 10 µM | > 10 µM | > 10 µM | > 10 µM | > 10 µM | > 10 µM | > 10 µM |  | > 10 µM | > 10 µM
5 | O=c1[nH]c2nccnc2c2c([N+](=O)[O-])cccc12 | > 100 µM |  | > 100 µM | > 100 µM | > 100 µM | > 100 µM |  | > 100 µM | > 100 µM | > 100 µM | > 100 µM | > 100 µM | > 100 µM | > 100 µM | > 100 µM | > 100 µM | > 100 µM | > 100 µM | > 100 µM | 73.4 µM
6 | CC1(C)CC(=O)C2=C(C1)NC(SCC(=O)O)=C(C#N)C2c1ccc(Br)cc1 (centres undefined) | > 100 µM | > 100 µM | > 100 µM | > 100 µM | > 100 µM | > 100 µM | > 100 µM | > 100 µM |  | > 100 µM | > 100 µM | > 100 µM | > 100 µM |  | > 100 µM |  | > 100 µM | > 100 µM | > 100 µM | 
7 | COc1ccc2c(c1)C1Oc3ccccc3CC1(O)CO2 (centres undefined) | > 100 µM | > 100 µM | > 100 µM |  | > 100 µM | > 100 µM | > 100 µM | > 100 µM | > 100 µM | > 100 µM | > 100 µM | > 100 µM | > 100 µM | > 100 µM |  | > 100 µM | > 100 µM | > 100 µM |  | > 100 µM
8 | [N-]=[N+]=NC1=NNC2(C(=O)N1)c1ccccc1-c1ccccc12 | > 100 µM | > 100 µM | 27.4 µM | > 100 µM | > 100 µM | > 100 µM | > 100 µM | 33.1 µM |  | > 100 µM | > 100 µM | > 100 µM | > 100 µM |  | > 100 µM | > 100 µM | > 100 µM | > 100 µM | > 100 µM | 
9 | O=c1[nH]c(=S)c2cc3c(=S)[nH]c(=O)n(CCC(c4ccccc4)(c4ccccc4)c4ccccc4)c3nc2n1CCC(c1ccccc1)(c1ccccc1)c1ccccc1 | > 100 µM | > 100 µM | > 100 µM |  | > 100 µM | > 100 µM | > 100 µM | > 100 µM | 84.1 µM | > 100 µM | > 100 µM | > 100 µM | > 100 µM | > 100 µM |  | > 100 µM | > 100 µM | > 100 µM |  | > 100 µM
10 | Fc1ccc(C2NC(=S)NC3=C2CCOc2c3ccc3ccccc23)cc1 (centres undefined) | > 100 µM | > 100 µM | 30.1 µM | > 100 µM | > 100 µM | > 100 µM |  | 43.4 µM | > 100 µM | > 100 µM | > 100 µM | 76.2 µM | > 100 µM | > 100 µM | > 100 µM | > 100 µM |  |  | > 100 µM | 9.44 µM
